# ChEMBL document CHEMBL3853324, “Optimizing Protonation States for Selective Double-Strand DNA Photocleavage in Hypoxic Tumors: pH-Gated Transitions of Lysine Dipeptides” (J Med Chem, 2016)
# The source made the active and inactive calls. No cut-off for these calls is given here.
# Tested on: not listed separately
# Test: Displacement of ethidium bromide from DNA (unknown origin) assessed as Stem-Volmer quenching constant at pH 7 by UV-spectroscopic analysis
# Set-up: unit not given here
row,Compound,KSV
1,C[C@H](N)C(=O)NCCCC[C@H](N)C(=O)Nc1ccc(C#Cc2c(F)c(F)nc(F)c2F)cc1,5.7
2,N[C@@H](Cc1ccccc1)C(=O)NCCCC[C@H](N)C(=O)Nc1ccc(C#Cc2c(F)c(F)nc(F)c2F)cc1,9.2
3,C[C@H](N)C(=O)NC[C@H](N)C(=O)Nc1ccc(C#Cc2c(F)c(F)nc(F)c2F)cc1,4.9
4,NCC(=O)NCCC[C@H](N)C(=O)Nc1ccc(C#Cc2c(F)c(F)nc(F)c2F)cc1,4.4

# Tested on: Escherichia coli
# Test: Induction of Escherichia coli supercoiled pBR322 plasmid DNA photocleavage at 15 uM and pH 6 to 8 measured after 1 hr of UV-irradiation by densitometric analysis
row,Compound,Activity
1,C[C@H](N)C(=O)NC[C@H](N)C(=O)Nc1ccc(C#Cc2c(F)c(F)nc(F)c2F)cc1,Active

# Tested on: Escherichia coli
# Test: Induction of Escherichia coli supercoiled pBR322 plasmid DNA photocleavage assessed as single stranded break formation per molecule at pH 6 at 15 uM measured after 8 mins of UV-irradiation by densitometric analysis
row,Compound,Activity
1,C[C@H](N)C(=O)NCCCC[C@H](N)C(=O)Nc1ccc(C#Cc2c(F)c(F)nc(F)c2F)cc1,1.9
2,N[C@@H](Cc1ccccc1)C(=O)NCCCC[C@H](N)C(=O)Nc1ccc(C#Cc2c(F)c(F)nc(F)c2F)cc1,1.7

# Organism: Bos taurus
# Test: Ratio of binding affinity to calf thymus DNA at pH 8 to binding affinity to calf thymus DNA at pH 6
row,Compound,Ratio
1,C[C@H](N)C(=O)NCCCC[C@H](N)C(=O)Nc1ccc(C#Cc2c(F)c(F)nc(F)c2F)cc1,10.5
2,N[C@@H](Cc1ccccc1)C(=O)NCCCC[C@H](N)C(=O)Nc1ccc(C#Cc2c(F)c(F)nc(F)c2F)cc1,5.7
3,C[C@H](N)C(=O)NC[C@H](N)C(=O)Nc1ccc(C#Cc2c(F)c(F)nc(F)c2F)cc1,3.5
4,NCC(=O)NCCC[C@H](N)C(=O)Nc1ccc(C#Cc2c(F)c(F)nc(F)c2F)cc1,> 4

# Tested on: Escherichia coli
# Test: Induction of Escherichia coli supercoiled pBR322 plasmid DNA photocleavage assessed as double stranded break formation per molecule at pH 6 at 15 uM measured after 6 mins of UV-irradiation by densitometric analysis
row,Compound,Activity
1,C[C@H](N)C(=O)NCCCC[C@H](N)C(=O)Nc1ccc(C#Cc2c(F)c(F)nc(F)c2F)cc1,0.19
2,N[C@@H](Cc1ccccc1)C(=O)NCCCC[C@H](N)C(=O)Nc1ccc(C#Cc2c(F)c(F)nc(F)c2F)cc1,0.13

# Tested on: A-375
# Test: Induction of DNA damage in human A375 cells assessed as abasic site formation at 3 uM preincubated for 1 hr followed by UV-irradiation for 2 hrs relative to control
# Format: functional
row,Compound,fold change (FC)
1,N[C@@H](Cc1ccccc1)C(=O)NCCCC[C@H](N)C(=O)Nc1ccc(C#Cc2c(F)c(F)nc(F)c2F)cc1,2

# Tested on: Escherichia coli
# Test: Induction of Escherichia coli supercoiled pBR322 plasmid DNA photocleavage assessed as ratio of single stranded break to double stranded break formation per molecule at pH 6 at 15 uM measured after 6 mins of UV-irradiation by densitometric analysis
row,Compound,Ratio
1,C[C@H](N)C(=O)NCCCC[C@H](N)C(=O)Nc1ccc(C#Cc2c(F)c(F)nc(F)c2F)cc1,9.1
2,N[C@@H](Cc1ccccc1)C(=O)NCCCC[C@H](N)C(=O)Nc1ccc(C#Cc2c(F)c(F)nc(F)c2F)cc1,8.04

# Tested on: Escherichia coli
# Test: Induction of Escherichia coli supercoiled pBR322 plasmid DNA photocleavage assessed as single stranded break formation per molecule at pH 6 at 15 uM measured after 6 mins of UV-irradiation by densitometric analysis
row,Compound,Activity
1,C[C@H](N)C(=O)NCCCC[C@H](N)C(=O)Nc1ccc(C#Cc2c(F)c(F)nc(F)c2F)cc1,1.7
2,N[C@@H](Cc1ccccc1)C(=O)NCCCC[C@H](N)C(=O)Nc1ccc(C#Cc2c(F)c(F)nc(F)c2F)cc1,1

# Tested on: not listed separately
# Test: Dissociation constant, pKa of the compound for second ionization at 10 uM by fluorescence analysis
# Format: physicochemical
row,Compound,pKa at 10 µM
1,C[C@H](N)C(=O)NC[C@H](N)C(=O)Nc1ccc(C#Cc2c(F)c(F)nc(F)c2F)cc1,8.1

# Tested on: not listed separately
# Test: Displacement of ethidium bromide from DNA (unknown origin) assessed as Stem-Volmer quenching constant at pH 8 by UV-spectroscopic analysis
# Set-up: unit not given here
row,Compound,KSV
1,C[C@H](N)C(=O)NCCCC[C@H](N)C(=O)Nc1ccc(C#Cc2c(F)c(F)nc(F)c2F)cc1,3.4
2,N[C@@H](Cc1ccccc1)C(=O)NCCCC[C@H](N)C(=O)Nc1ccc(C#Cc2c(F)c(F)nc(F)c2F)cc1,6.7
3,C[C@H](N)C(=O)NC[C@H](N)C(=O)Nc1ccc(C#Cc2c(F)c(F)nc(F)c2F)cc1,3.1
4,NCC(=O)NCCC[C@H](N)C(=O)Nc1ccc(C#Cc2c(F)c(F)nc(F)c2F)cc1,1.5

# Tested on: not listed separately
# Test: Dissociation constant, pKa of the compound in D2O for first ionization at 1 mM by H1-NMR analysis
# Format: physicochemical
row,Compound,pKa at 1000 µM
1,C[C@H](N)C(=O)NCCCC[C@H](N)C(=O)Nc1ccc(C#Cc2c(F)c(F)nc(F)c2F)cc1,7.3
2,N[C@@H](Cc1ccccc1)C(=O)NCCCC[C@H](N)C(=O)Nc1ccc(C#Cc2c(F)c(F)nc(F)c2F)cc1,6.6
3,NCC(=O)NCCC[C@H](N)C(=O)Nc1ccc(C#Cc2c(F)c(F)nc(F)c2F)cc1,7.2

# Tested on: Escherichia coli
# Test: Induction of Escherichia coli supercoiled pBR322 plasmid DNA photocleavage at 15 uM and pH 6 in presence of NaN3 by densitometric analysis
row,Compound,Activity
1,NCC(=O)NCCC[C@H](N)C(=O)Nc1ccc(C#Cc2c(F)c(F)nc(F)c2F)cc1,Active

# Organism: Bos taurus
# Test: Binding affinity to calf thymus DNA assessed as binding constant at 15 uM and pH 6 by UV-spectroscopic analysis
row,Compound,Kb
1,C[C@H](N)C(=O)NCCCC[C@H](N)C(=O)Nc1ccc(C#Cc2c(F)c(F)nc(F)c2F)cc1,2890
2,N[C@@H](Cc1ccccc1)C(=O)NCCCC[C@H](N)C(=O)Nc1ccc(C#Cc2c(F)c(F)nc(F)c2F)cc1,11700
3,C[C@H](N)C(=O)NC[C@H](N)C(=O)Nc1ccc(C#Cc2c(F)c(F)nc(F)c2F)cc1,5850
4,NCC(=O)NCCC[C@H](N)C(=O)Nc1ccc(C#Cc2c(F)c(F)nc(F)c2F)cc1,2830

# Tested on: Escherichia coli
# Test: Induction of Escherichia coli supercoiled pBR322 plasmid DNA photocleavage assessed as ratio of single stranded break to double stranded break formation per molecule at pH 6 at 15 uM measured after 8 mins of UV-irradiation by densitometric analysis
row,Compound,Ratio
1,C[C@H](N)C(=O)NCCCC[C@H](N)C(=O)Nc1ccc(C#Cc2c(F)c(F)nc(F)c2F)cc1,6.6
2,N[C@@H](Cc1ccccc1)C(=O)NCCCC[C@H](N)C(=O)Nc1ccc(C#Cc2c(F)c(F)nc(F)c2F)cc1,8

# Tested on: Escherichia coli
# Test: Induction of Escherichia coli supercoiled pBR322 plasmid DNA photocleavage at 15 uM and pH 6 in presence of DMSO by densitometric analysis
row,Compound,Activity
1,NCC(=O)NCCC[C@H](N)C(=O)Nc1ccc(C#Cc2c(F)c(F)nc(F)c2F)cc1,Active

# Tested on: Escherichia coli
# Test: Induction of Escherichia coli supercoiled pBR322 plasmid DNA photocleavage at 15 uM and pH 6 in presence of glycerol by densitometric analysis
row,Compound,Activity
1,NCC(=O)NCCC[C@H](N)C(=O)Nc1ccc(C#Cc2c(F)c(F)nc(F)c2F)cc1,Active

# Tested on: Escherichia coli
# Test: Induction of Escherichia coli supercoiled pBR322 plasmid DNA photocleavage assessed as ratio of single stranded break to double stranded break formation per molecule at pH 6 at 15 uM measured after 4 mins of UV-irradiation by densitometric analysis
row,Compound,Ratio
1,C[C@H](N)C(=O)NCCCC[C@H](N)C(=O)Nc1ccc(C#Cc2c(F)c(F)nc(F)c2F)cc1,9.4

# Tested on: Escherichia coli
# Test: Induction of Escherichia coli supercoiled pBR322 plasmid DNA photocleavage assessed as double stranded break formation per molecule at pH 6 at 15 uM measured after 4 mins of UV-irradiation by densitometric analysis
row,Compound,Activity
1,C[C@H](N)C(=O)NCCCC[C@H](N)C(=O)Nc1ccc(C#Cc2c(F)c(F)nc(F)c2F)cc1,0.07
2,N[C@@H](Cc1ccccc1)C(=O)NCCCC[C@H](N)C(=O)Nc1ccc(C#Cc2c(F)c(F)nc(F)c2F)cc1,0

# Tested on: not listed separately
# Test: Dissociation constant, pKa of the compound for first ionization at 10 uM by fluorescence analysis
# Format: physicochemical
row,Compound,pKa at 10 µM
1,C[C@H](N)C(=O)NCCCC[C@H](N)C(=O)Nc1ccc(C#Cc2c(F)c(F)nc(F)c2F)cc1,7.3
2,N[C@@H](Cc1ccccc1)C(=O)NCCCC[C@H](N)C(=O)Nc1ccc(C#Cc2c(F)c(F)nc(F)c2F)cc1,7.3
3,C[C@H](N)C(=O)NC[C@H](N)C(=O)Nc1ccc(C#Cc2c(F)c(F)nc(F)c2F)cc1,5.5
4,NCC(=O)NCCC[C@H](N)C(=O)Nc1ccc(C#Cc2c(F)c(F)nc(F)c2F)cc1,7

# Organism: Bos taurus
# Test: Binding affinity to calf thymus DNA assessed as binding constant at 15 uM and pH 7 by UV-spectroscopic analysis
row,Compound,Kb
1,C[C@H](N)C(=O)NCCCC[C@H](N)C(=O)Nc1ccc(C#Cc2c(F)c(F)nc(F)c2F)cc1,8890
2,N[C@@H](Cc1ccccc1)C(=O)NCCCC[C@H](N)C(=O)Nc1ccc(C#Cc2c(F)c(F)nc(F)c2F)cc1,13100
3,C[C@H](N)C(=O)NC[C@H](N)C(=O)Nc1ccc(C#Cc2c(F)c(F)nc(F)c2F)cc1,15000
4,NCC(=O)NCCC[C@H](N)C(=O)Nc1ccc(C#Cc2c(F)c(F)nc(F)c2F)cc1,10500

# Tested on: A-375
# Test: Induction of DNA damage in human A375 cells assessed as abasic site formation at 3 uM preincubated for 1 hr followed by UV-irradiation for 2 hrs
# Format: functional
row,Compound,Activity
1,N[C@@H](Cc1ccccc1)C(=O)NCCCC[C@H](N)C(=O)Nc1ccc(C#Cc2c(F)c(F)nc(F)c2F)cc1,17

# Tested on: Escherichia coli
# Test: Induction of Escherichia coli supercoiled pBR322 plasmid DNA photocleavage assessed as single stranded break formation per molecule at pH 6 at 15 uM measured after 4 mins of UV-irradiation by densitometric analysis
row,Compound,Activity
1,C[C@H](N)C(=O)NCCCC[C@H](N)C(=O)Nc1ccc(C#Cc2c(F)c(F)nc(F)c2F)cc1,0.6
2,N[C@@H](Cc1ccccc1)C(=O)NCCCC[C@H](N)C(=O)Nc1ccc(C#Cc2c(F)c(F)nc(F)c2F)cc1,0.7

# Tested on: not listed separately
# Test: Dissociation constant, pKa of the compound in D2O for second ionization at 1 mM by H1-NMR analysis
# Format: physicochemical
row,Compound,pKa at 1000 µM
1,C[C@H](N)C(=O)NCCCC[C@H](N)C(=O)Nc1ccc(C#Cc2c(F)c(F)nc(F)c2F)cc1,7.4
2,N[C@@H](Cc1ccccc1)C(=O)NCCCC[C@H](N)C(=O)Nc1ccc(C#Cc2c(F)c(F)nc(F)c2F)cc1,6.7
3,NCC(=O)NCCC[C@H](N)C(=O)Nc1ccc(C#Cc2c(F)c(F)nc(F)c2F)cc1,7.7

# Tested on: Escherichia coli
# Test: Induction of Escherichia coli supercoiled pBR322 plasmid DNA photocleavage assessed as double stranded break formation per molecule at pH 6 at 15 uM measured after 8 mins of UV-irradiation by densitometric analysis
row,Compound,Activity
1,C[C@H](N)C(=O)NCCCC[C@H](N)C(=O)Nc1ccc(C#Cc2c(F)c(F)nc(F)c2F)cc1,0.29
2,N[C@@H](Cc1ccccc1)C(=O)NCCCC[C@H](N)C(=O)Nc1ccc(C#Cc2c(F)c(F)nc(F)c2F)cc1,0.21

# Organism: Bos taurus
# Test: Binding affinity to calf thymus DNA assessed as binding constant at 15 uM and pH 8 by UV-spectroscopic analysis
row,Compound,Kb
1,C[C@H](N)C(=O)NCCCC[C@H](N)C(=O)Nc1ccc(C#Cc2c(F)c(F)nc(F)c2F)cc1,30300
2,N[C@@H](Cc1ccccc1)C(=O)NCCCC[C@H](N)C(=O)Nc1ccc(C#Cc2c(F)c(F)nc(F)c2F)cc1,66700
3,C[C@H](N)C(=O)NC[C@H](N)C(=O)Nc1ccc(C#Cc2c(F)c(F)nc(F)c2F)cc1,20500
4,NCC(=O)NCCC[C@H](N)C(=O)Nc1ccc(C#Cc2c(F)c(F)nc(F)c2F)cc1,15000

# Tested on: not listed separately
# Test: Displacement of ethidium bromide from DNA (unknown origin) assessed as Stem-Volmer quenching constant at pH 6 by UV-spectroscopic analysis
# Set-up: unit not given here
row,Compound,KSV
1,C[C@H](N)C(=O)NCCCC[C@H](N)C(=O)Nc1ccc(C#Cc2c(F)c(F)nc(F)c2F)cc1,6.8
2,N[C@@H](Cc1ccccc1)C(=O)NCCCC[C@H](N)C(=O)Nc1ccc(C#Cc2c(F)c(F)nc(F)c2F)cc1,27.8
3,C[C@H](N)C(=O)NC[C@H](N)C(=O)Nc1ccc(C#Cc2c(F)c(F)nc(F)c2F)cc1,9
4,NCC(=O)NCCC[C@H](N)C(=O)Nc1ccc(C#Cc2c(F)c(F)nc(F)c2F)cc1,7
